How the values were obtained:
COPD patients [1] = assay: Re-analysis of ISOLDE 3-year clinical study: rate of decline of FEV1 by baseline blood eosinophil count; format: in vivo, human; settings: 500 mcg twice daily
Description: Methods: The results of ISOLDE (Burge P S et al BMJ 2000; 320:1297-303), a 3-year study of the effects of fluticasone propionate (FP) 500 mcg twice daily on rate of decline of FEV1 in well-characterised COPD patients were re-analysed by baseline blood eosinophil count (≥2%, <2%).

COPD patients [2] = settings: pre-specified analysis of ISOLDE, all patients; 500 mcg twice daily, 3 years; cited from earlier work

CCC(=O)O[C@]1(C(=O)SCF)[C@H](C)C[C@H]2[C@@H]3C[C@H](F)C4=CC(=O)C=C[C@]4(C)[C@@]3(F)[C@@H](O)C[C@@]21C [FP, fluticasone propionate]
difference in rate of decline of FEV1 vs. placebo (COPD patients [1]; patients with eosinophil count <2%, 3 years): no difference
slowing of the rate of decline of lung function compared with placebo (COPD patients [1]; patients with eosinophil count ≥2%, p=0.001): 38 mL per year
effect on the rate of decline of FEV1 vs. placebo (COPD patients [2]): no effect
